What was measured:
[1] = system: HCT116 (colon cancer); assay: MTT cell viability assay; type: cell-based, human; conditions: HCT116, cultured 24 and 48 hours, increasing concentrations; time- and dose-dependent
Protocol: (§1) To verify the efficacy of salvianolic acid B (Sigma-Aldrich) and tanshinone I (Sigma-Aldrich) on tumor cells, MTT (3-(4,5-dimethylthiazol-2-yl)-2,5-diphenyltetrazolium bromide) assay was applied to measure cell viability.
(§2) For the experiment, AsPC-1 (pancreatic cancer), HCT116 (colon cancer), and NCI-H460 (lung cancer) were used as tumor cell lines, and each tumor cell was dispensed by 1×10^3 cells/well (100 μL). After dispensing, all cells were attached to the wells for 24 hours. […] After culturing the drug-treated tumor cells for 24 and 48 hours, MTT at a concentration of 5 mg/mL was added to each tumor cell, followed by culture for 90 minutes again. Finally, the optical density (OD) of the tumor cells was measured at 540 nm using a microplate reader (Molecular Devices, USA). The analysis was performed three or more times.

[2] = system: AsPC-1 (pancreatic cancer); assay: MTT cell viability assay; type: cell-based, human; conditions: AsPC-1, cultured 24 and 48 hours, increasing concentrations; time- and dose-dependent
Protocol: as §1, §2

[3] = system: NCI-H460 (lung cancer); assay: MTT cell viability assay; type: cell-based, human; conditions: NCI-H460, cultured 24 and 48 hours, increasing concentrations; time- and dose-dependent
Protocol: as §1, §2

[4] = target: T1, KRAS G12V (Homo sapiens, UniProt P01116, G12V); assay: Isothermal titration calorimetry (ITC); conditions: 25° C., read-out: binding affinity KD
T1 sequence (P01116 1-188 isoform P01116-2 G12V): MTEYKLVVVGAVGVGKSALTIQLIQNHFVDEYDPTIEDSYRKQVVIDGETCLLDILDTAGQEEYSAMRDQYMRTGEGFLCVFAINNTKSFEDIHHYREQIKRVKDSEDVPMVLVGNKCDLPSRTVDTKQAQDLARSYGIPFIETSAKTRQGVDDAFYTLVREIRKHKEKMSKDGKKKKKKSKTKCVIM
Protocol: In order to identify the affinity of salvianolic acid B or tanshinone I for the KRAS mutant KRAS G12V protein, isothermal titration calorimetry (ITC) was used. KRAS G12V protein was dialyzed using buffer [20 mM Tris-HCl (pH 7.4), 100 mM NaCl, and 2 mM MgCl2]. Next, salvianolic acid B or tanshinone I was dissolved using the same buffer, and then the prepared KRAS G12V protein and salvianolic acid B or tanshinone I were injected into an isothermal calorimeter to perform isothermal titration thermometry. Titration measurement was performed at 25° C., involved with 20 injections at an interval of 200 seconds while salvianolic acid B or tanshinone I was stirred at 1,000 rpm. ΔS was calculated from standard thermodynamic equations using the calculated K and ΔH values. Isothermal titration thermometric analysis was performed using a MicroCal AutoITC200 (GE Healthcare, Sweden), and data were analyzed using the Origin 7.0 program.

[5] = target: T1, KRAS G12V; assay: Guanine nucleotide binding assay; parameters: made in house; host or cells: E. coli BL21 (DE3); conditions: in the presence of compound, 37° C., liquid scintillation counting
Protocol: The recombinant gene KRAS G12V was inserted into E. coli BL21 (DE3) for expression. The overexpressed protein was purified using affinity chromatography and gel filtration chromatography. Purified KRAS G12V protein was bound to Ni-NTA beads using binding buffer [50 mM Hepes (pH 7.5), 100 mM NaCl, 2 mM MgCl2, 1 mM EDTA, and 1 mM DTT] at 4° C. Ni-NTA beads bound with KRAS G12V proteins were washed with binding buffer and then reacted with radioisotope [α-^32P] GTP (2,500 cpm/pmol), GTP, and salvianolic acid B or tanshinone I at 37° C. The beads were then washed with wash buffer [20 mM Tris-HCl (pH 7.4), 100 mM NaCl, and 2 mM MgCl2]. 200 mM imidazole was used to elute the bead-bound KRAS G12V protein, and radioactive nucleotides were quantified by liquid scintillation counting.

Row | SMILES | cell viability [1] | cell viability [2] | cell viability [3] | Kd [4] [µM] | activity of radioisotope [α-32P] GTP binding of KRAS G12V [5]
1 | O=C(/C=C/c1ccc(O)c2c1[C@H](C(=O)O[C@H](Cc1ccc(O)c(O)c1)C(=O)O)[C@@H](c1ccc(O)c(O)c1)O2)O[C@H](Cc1ccc(O)c(O)c1)C(=O)O [salvianolic acid B] | decrease in cell viability | decrease in cell viability | decrease in cell viability | 32 | decreased
2 | Cc1coc2c1C(=O)C(=O)c1c-2ccc2c(C)cccc12 [tanshinone I] | decrease in cell viability | decrease in cell viability | decrease in cell viability | 21 | decreased
